From patent publication US12428417B2, “Inhibitors of macrophage migration inhibitory factor” (The Brigham and Women's Hospital, Inc., priority 2019, dated 2025)

How the values were obtained:
[1] = tested on: P. falciparum strain NF54 attB parasites; assay: Invasion assay: synchronized late-stage schizonts added to uninfected RBCs, parasitemia measured by FACS; assay type: cell-based
Experimental: Experimental protocol: Synchronized late-stage schizonts were added at 1% initial parasitemia to uninfected recipient normal RBCs and parasitemia was measured by FACS. Parasitemia is normalized to the control no-inhibitor condition. Data analyzed by one-way ANOVA. Statistically significant differences are indicated with a star over the bar. Asterisk (*) indicates p<0.01 compared to control (no-inhibitor).
FIG. 2 describes results of invasion assay in presence of titrated amounts of MIF inhibitors. […] All data is normalized to the control no-inhibitor condition. […] Asterisk (*) indicates p<0.01 compared to control (no-inhibitor).
(§1) P. falciparum strain NF54 attB parasites (Dr. Niles, MIT). Synchronized late-stage schizonts were added at 1% initial parasitemia to uninfected recipient normal RBCs and parasitemia was measured by FACS (FIG. 2). […] Given that ibudilast has inhibitory effect on the function of MIF as well as phosphodiesterase 4 (PDE4) in the RBC, it was evaluated whether specific inhibitors of MIF and PDE4 would cause major decline in parasitemia at similar dosages. While inhibition of parasite growth was not observed due to abolishing the function of PDE4 (data not shown), inhibition of the tautomerase activity of MIF in vitro by an irreversible inhibitor of MIF—4-IPP—caused a significant decline in the levels of parasitemia (FIG. 2).

[2] = tested on: P. falciparum infected RBC cultures; assay: FACS analysis of infected RBC cultures (schizont stage); assay type: cell-based; conditions: 48 to 60 hours post infection; data not shown
Experimental: as §1

[3] = tested on: Pf-infected RBCs; assay: Confocal microscopy of Pf-infected RBCs with BODIPY TR lipophilic intracellular staining (egress); assay type: cell-based, P. falciparum; conditions: treated Pf-infected RBCs; FIG. 3
Description: One plane of confocal microscopy z-stack is shown.

With `COC(=O)CC1CC(c2ccc(O)cc2)=NO1` (stereo not shown) [ISO-1] the “invasion at a range of concentrations” value ([1]; data not shown) was “did not reduce the invasion”.

For `Ic1cc(-c2ccccc2)ncn1` [Example 4-IPP], the “percentage of mature schizont” value [2] was “significant increase”, the parasitemia in vitro ([1]; 1% initial parasitemia, normal RBCs, FIG. 2) was “significantly lowered parasitemia” and the “parasitemia after removal of inhibitor 6 h post-infection” value ([1]; inhibitor removed 6 h post-infection) was “did not recover the parasitemia”. For the same molecule, the “parasitemia after treating only the recipient RBCs before infection” value ([1]; recipient RBCs treated 3 h and 6 h, inhibitor washed off before infection) was “parasitemia at the level of the control condition” and the “state of mature schizonts (egress)” value [3] was “mature schizonts remain encapsulated”.

B1: hu-MIF: exogenous human macrophage migration inhibitory factor added in the invasion assay (protein, UniProt P14174 2-115, looked up)
Macrophage migration …: PMFIVNTNVPRASVPDGFLSELTQQLAQATGKPPQYIAVHVVPDQLMAFGGSSEPCALCSLHSIGKIGGAQNRSYSKLLCGLLAERLRISPDRVYINYYDMNAANVGWNNSTFA
B1 was tested, and the “parasitemia in presence of exogenous protein” value ([1]; cells preincubated for up to 6 h, data not shown) was “did not show reduced or increased parasitemia”.
